As usually defined, the IC50 is the concentration needed to halve the response being measured. Higher therefore signals weaker potency in that assay. For orientation: inhibition means the drop in the measured response relative to a control, in per cent. As a reminder, the Inhibition is the share of the control response that was lost under treatment. A high value points to a strong effect.

Values after ≈ are worked out from the molar mass of the structure shown. Bounds are passed on as bounds.

18 compounds from ChEMBL document CHEMBL1125841, “Nucleosides and nucleotides. 96. Synthesis and antitumor activity of 5-ethynyl-1-beta-D-ribofuranosylimidazole-4-carboxamide (EICAR) and its derivatives” (J Med Chem, 1991) can be followed below.

One assay deals with PC-6. Description: In vitro inhibitory activity against growth of Human lung small-cell carcinoma (PC-6) cells. In kind it is functional, cell-based.
For another assay, the system named is QG-90. Description: In vitro inhibitory activity against growth of Human lung small cell carcinoma (QG-90) cells. In kind it is functional, cell-based.
A further assay relates to QG-56. In words: In vitro inhibitory activity against growth of Human lung squamous-cell carcinoma (QG-56) cells. The format is functional, cell-based.
Another assay deals with G-292. Description: In vitro inhibitory activity against growth of Human osteogenic sarcoma (G-292) cells. In kind it is functional, cell-based. As to conditions: G292.
Another assay concerns KB. In words: In vitro inhibitory activity against growth of Human oral epidermoid carcinoma (KB) cells. The format is functional, cell-based.
Another assay concerns HT-1376. In words: In vitro inhibitory activity against growth of Human bladder carcinoma (HT1376) cells. In kind it is functional, cell-based.
The next assay concerns SAOS-2. Description: In vitro inhibitory activity against growth of Human osteogenic sarcoma (Saos-2) cells. In kind it is functional, cell-based.
The next assay concerns Lu-65. Description: In vitro inhibitory activity against growth of Human gaint cell carcinoma (Lu-65) cells. In kind it is functional, cell-based.
In the next assay the test system is OST. In words: In vitro inhibitory activity against growth of Human osteosarcoma (OST) cells. The format is functional, cell-based.
The test system of another assay is KU-2 cell line. In words: In vitro inhibitory activity against growth of Human renal-cell carcinoma (KU-2) cells. The format is functional, cell-based.
Another assay relates to U-937. Description: In vitro inhibitory activity against growth of Human histocytic lymphoma (U937) cells. In kind it is functional, cell-based.
Another assay concerns K562. Description: In vitro inhibitory activity against growth of Human chronic myelogenous leukemia (K562 cells. In kind it is functional, cell-based.
In the next assay the test system is HL-60. In words: In vitro inhibitory activity against growth of Human promyelocytic leukemia (HL-60) cells. The format is functional, cell-based.
Another assay has as its system T-24. In words: In vitro inhibitory activity against growth of Human bladder transitional-cell carcinoma (T-24) cells. The format is functional, cell-based.
The subject of the next assay is Calu-1. Description: In vitro inhibitory activity against growth of Human epidermoid carcinoma (Calu-1) cells. In kind it is functional, cell-based.
The test system of the next assay is HOS. Description: In vitro inhibitory activity against growth of Human osteogenic sarcoma (HOS) cells. The format is functional, cell-based.
For a further assay, the system named is PC-3. In words: In vitro inhibitory activity against growth of Human lung adenocarcinoma (PC-3) cells. In kind it is functional, cell-based.
Another assay deals with COLO 205. Description: In vitro inhibitory activity against growth of Human colon adenocarcinoma (COLO 205) cells. The format is functional, cell-based.
The subject of a further assay is RPMI-8226. In words: In vitro inhibitory activity against growth of Human myeloma (RPMI 8226) cells. In kind it is functional, cell-based.
For a further assay, the system named is PC-8. In words: In vitro inhibitory activity against growth of Human lung adenocarcinoma (PC-8) cells. In kind it is functional, cell-based.
Another assay has as its system SW480. Description: In vitro inhibitory activity against growth of Human colon adenocarcinoma (SW-480) cells. In kind it is functional, cell-based.
The subject of assay [1] is L1210. Description: (§1) In vitro inhibitory activity against growth of murine L1210 cells. The format is functional, cell-based. As to conditions: Mus musculus.
Another assay concerns PC-13. Description: In vitro inhibitory activity against growth of Human large-cell carcinoma (PC-13) cells. In kind it is functional, cell-based.
The next assay relates to HT-1080. Description: In vitro inhibitory activity against growth of Human fibrosarcoma (HT1080) cells. The format is functional, cell-based.
Another assay concerns PANC-1. In words: In vitro inhibitory activity against growth of Human pancreas epitheloid carcinoma (PANC-1) cells. In kind it is functional, cell-based.
The test system of another assay is CCRF-CEM. In words: In vitro inhibitory activity against growth of Human acute lymphocytic leukemia (CCRF-CEM) cells. The format is functional, cell-based.
The test system of assay [2] is L1210. Description: In vitro inhibitory activity against growth of murine L1210 cells at 100 ug/mL concentration. The format is functional. As to conditions: Mus musculus.
In assay [3] the test system is L1210. Described as §1. In kind it is functional, Mus musculus.

In the case of `C#Cc1c(C(N)=O)ncn1[C@@H]1O[C@H](CO)[C@@H](O)[C@H]1O`, the IC50 worked out at 0.46 µg/mL (≈ 1.72 µM) with PC-6; 0.23 µg/mL (≈ 0.861 µM) in the assay on QG-90; 0.18 µg/mL (≈ 0.674 µM) in the assay on QG-56; 2.55 µg/mL (≈ 9.54 µM) with G-292; 12 µg/mL (≈ 44.9 µM) in the assay with KB; 0.14 µg/mL (≈ 0.524 µM) with HT-1376. Besides, the IC50 was 4.23 µg/mL (≈ 15.8 µM) with SAOS-2; 3.8 µg/mL (≈ 14.2 µM) in the assay with Lu-65; 28 µg/mL (≈ 105 µM) in the assay on OST; less than 0.1 µg/mL in the assay on KU-2 cell line; 0.11 µg/mL (≈ 0.412 µM) with U-937; 0.17 µg/mL (≈ 0.636 µM) in the assay with K562. The IC50 in the assay on HL-60 turned out to be 0.23 µg/mL (≈ 0.861 µM); in the assay on T-24 it was 0.88 µg/mL (≈ 3.29 µM); in the assay with Calu-1, 0.21 µg/mL (≈ 0.786 µM); in the assay on HOS it was 0.28 µg/mL (≈ 1.05 µM); in the assay on PC-3, 96 µg/mL (≈ 359 µM); in the assay with COLO 205, 0.11 µg/mL (≈ 0.412 µM). Also, the IC50 in the assay with RPMI-8226 came out at 0.44 µg/mL (≈ 1.65 µM); with PC-8, 0.54 µg/mL (≈ 2.02 µM); in the assay with SW480, 3.3 µg/mL (≈ 12.3 µM); in the assay on L1210 [1], 0.18 µg/mL (≈ 0.674 µM); with PC-13 it was 86 µg/mL (≈ 322 µM); in the assay on HT-1080, 3 µg/mL (≈ 11.2 µM). The IC50 in the assay on PANC-1 came to 0.16 µg/mL (≈ 0.599 µM); in the assay with CCRF-CEM, 1.03 µg/mL (≈ 3.85 µM).

With `NC(=O)c1ncn(C2O[C@H](CO)[C@@H](O)[C@H]2O)c1C#CC1CCCCC1` (some centres not stated), the inhibition at 100 µg/mL in the assay on L1210 [2] stood at 18.9%.

Consider `NC(=O)c1ncn(C2O[C@H](CO)[C@@H](O)[C@H]2O)c1C#CCC1CCCC1` (some centres not stated), for which the inhibition at 100 µg/mL in the assay with L1210 [2] is -10.7%.

Consider `C#Cc1c(C#N)ncn1C1O[C@H](CO)[C@@H](O)[C@H]1O` (some centres not stated), for which, in the assay with L1210 [1], 1.9 µg/mL (≈ 7.62 µM) corresponded to half-maximal inhibition (IC50).

In the assay with L1210 [1], `CCCCC#Cc1c(C(N)=O)ncn1C1O[C@H](CO)[C@@H](O)[C@H]1O` (some centres not stated) displayed an IC50 of 2.29 µg/mL (≈ 7.08 µM).

For the compound `N#Cc1ncn(C2O[C@H](CO)[C@@H](O)[C@H]2O)c1C#CCCO` (some centres not stated), in the assay on L1210 [1], the 50% inhibitory concentration (IC50) was 3.3 µg/mL (≈ 11.3 µM).

In the assay on L1210 [3], `N#CCCCC#Cc1c(C(N)=O)ncn1C1O[C@H](CO)[C@@H](O)[C@H]1O` (some centres not stated) registered an Inhibition of 3.6%.

As for `CCCC#Cc1c(C#N)ncn1C1O[C@H](CO)[C@@H](O)[C@H]1O` (some centres not stated), 14.8 µg/mL (≈ 50.8 µM) corresponded to half-maximal inhibition with L1210 [1] (IC50).

Consider `C=Cc1c(C(N)=O)ncn1C1O[C@H](CO)[C@@H](O)[C@H]1O` (some centres not stated), for which the inhibition at 100 µg/mL in the assay on L1210 [2] was 0.4%.

Take `N#Cc1ncn(C2O[C@H](CO)[C@@H](O)[C@H]2O)c1C#Cc1ccccc1` (some centres not stated): in the assay on L1210 [1], half-maximal inhibition (IC50) was put at 80.3 µg/mL (≈ 247 µM).

In the assay with L1210 [1], `N#Cc1ncn(C2O[C@H](CO)[C@@H](O)[C@H]2O)c1C#CCO` (some centres not stated) gave an IC50 of 4.1 µg/mL (≈ 14.7 µM).

As to `NC(=O)c1ncn(C2O[C@H](CO)[C@@H](O)[C@H]2O)c1C#CCCc1ccccc1` (some centres not stated), the inhibition at 100 µg/mL with L1210 [2] turned out to be 8.5%.

Take `NC(=O)c1ncn(C2O[C@H](CO)[C@@H](O)[C@H]2O)c1C#CCCO` (some centres not stated): the half-inhibitory concentration (IC50) with PC-6 is 12 µg/mL (≈ 38.5 µM); in the assay on KB it was 9.5 µg/mL (≈ 30.5 µM); with Lu-65 it was 15 µg/mL (≈ 48.2 µM); with OST, 51 µg/mL (≈ 164 µM); in the assay with T-24 it was 15 µg/mL (≈ 48.2 µM); in the assay on PC-3 it was more than 100 µg/mL. Further, the IC50 was 6.2 µg/mL (≈ 19.9 µM) in the assay on SW480, 1.28 µg/mL (≈ 4.11 µM) in the assay with L1210 [1], 26 µg/mL (≈ 83.5 µM) in the assay on PC-13 and more than 100 µg/mL in the assay with HT-1080.

As to `NC(=O)c1ncn(C2O[C@H](CO)[C@@H](O)[C@H]2O)c1C#Cc1ccccc1` (some centres not stated), it took 20.6 µg/mL (≈ 60 µM) to reach half-maximal inhibition in the assay with L1210 [1] (IC50).

Take `NC(=O)c1ncn(C2O[C@H](CO)[C@@H](O)[C@H]2O)c1C#CCO` (some centres not stated): the IC50 in the assay on KB is 7.5 µg/mL (≈ 25.2 µM); in the assay on Lu-65 it was 54 µg/mL (≈ 182 µM); in the assay with OST, more than 100 µg/mL; in the assay on T-24, 8.8 µg/mL (≈ 29.6 µM); with PC-3, 54 µg/mL (≈ 182 µM); in the assay on SW480 it was 3.8 µg/mL (≈ 12.8 µM). Besides, the IC50 came to 0.7 µg/mL (≈ 2.35 µM) with L1210 [1] and 44 µg/mL (≈ 148 µM) in the assay with PC-13.

The compound `CC(C)(O)C#Cc1c(C(N)=O)ncn1C1O[C@H](CO)[C@@H](O)[C@H]1O` (some centres not stated) returned an IC50 with L1210 [1] of 4.8 µg/mL (≈ 14.8 µM).

As for `O=c1[nH]cc(F)c(=O)[nH]1` [FLUOROURACIL], the IC50 in the assay on QG-90 is 0.22 µg/mL (≈ 1.69 µM); in the assay with QG-56, 0.18 µg/mL (≈ 1.38 µM); with G-292, more than 3.3 µg/mL; in the assay on HT-1376, 0.58 µg/mL (≈ 4.46 µM); in the assay with SAOS-2, 0.78 µg/mL (≈ 6 µM); with KU-2 cell line it was 0.28 µg/mL (≈ 2.15 µM). For the same compound, the 50% inhibitory concentration (IC50) in the assay on U-937 was 0.11 µg/mL (≈ 0.846 µM); with K562, 2.2 µg/mL (≈ 16.9 µM); in the assay with HL-60 it was 1.33 µg/mL (≈ 10.2 µM); in the assay on Calu-1, more than 3.3 µg/mL; in the assay on HOS, 0.79 µg/mL (≈ 6.07 µM); with COLO 205, 0.1 µg/mL (≈ 0.769 µM). Moreover, the IC50 in the assay with RPMI-8226 was determined as 0.07 µg/mL (≈ 0.538 µM); in the assay with PC-8, 0.42 µg/mL (≈ 3.23 µM); in the assay on PANC-1 it was 0.22 µg/mL (≈ 1.69 µM); with CCRF-CEM it was 2.1 µg/mL (≈ 16.1 µM).

Consider `NC(=O)c1ncn([C@@H]2O[C@H](CO)[C@@H](O)[C@H]2O)c1O` [MIZORIBINE], for which the IC50 with PC-6 was 49 µg/mL (≈ 189 µM); in the assay with KB, more than 100 µg/mL; with Lu-65, more than 100 µg/mL; in the assay with OST, more than 100 µg/mL; in the assay on T-24, more than 100 µg/mL; with PC-3, more than 100 µg/mL. Moreover, the IC50 was 42 µg/mL (≈ 162 µM) in the assay on SW480, more than 100 µg/mL in the assay with PC-13 and more than 100 µg/mL in the assay with HT-1080.
